Tests used:
[1] = Solubility of compound in DMSO; assay type: physicochemical
Nucleic Acid [2] = assay: (§1) Induction of bacteriophage supercoiled double stranded phiX174 plasmid DNA cleavage assessed as formation of relaxed open circular form at 40 ug using ethidium bromide staining by agarose gel electrophoresis-based UV transilluminator analysis relative to control; assay type: nucleic-acid assay; parameters: scale not given: the % may be the effect or the level left; settings: unidentified phage
Nucleic Acid [3] = assay: as §1, with “30” for “40”, “ug followed by UV irradiation for 45 mins” for “ug”; assay type: nucleic-acid assay; parameters: scale not given: the % may be the effect or the level left; settings: unidentified phage
Nucleic Acid [4] = assay: as §1, with “120” for “40”, “ug followed by UV irradiation for 45 mins” for “ug”; assay type: nucleic-acid assay; parameters: scale not given: the % may be the effect or the level left; settings: unidentified phage
Nucleic Acid [5] = assay: as §1, with “80” for “40”, “ug followed by UV irradiation for 45 mins” for “ug”; assay type: nucleic-acid assay; parameters: scale not given: the % may be the effect or the level left; settings: unidentified phage

Structure (SMILES)	solubility [1]	Activity (Nucleic Acid [2]) [%]	Activity (Nucleic Acid [3]) [%]	Activity (Nucleic Acid [4]) [%]	Activity (Nucleic Acid [5]) [%]
Cc1nc2ccccc2n2c(-c3ccco3)nnc12	soluble				
Cc1nc2ccccc2n2c(-c3ccccc3Cl)nnc12	soluble				
Cc1nc2ccccc2n2c(-c3ccccc3[N+](=O)[O-])nnc12	soluble				
Cc1nc2ccccc2n2c(-c3cccs3)nnc12	soluble	0	26	68	53
